In general, IC50 refers to the concentration that gives 50% inhibition. What is called inhibition is the relative decrease from the control value, in per cent.

Data set [1] deals with T1, RARα/RXRα (Homo sapiens, UniProt P10276+P19793).
T1 sequence (P10276 1-462): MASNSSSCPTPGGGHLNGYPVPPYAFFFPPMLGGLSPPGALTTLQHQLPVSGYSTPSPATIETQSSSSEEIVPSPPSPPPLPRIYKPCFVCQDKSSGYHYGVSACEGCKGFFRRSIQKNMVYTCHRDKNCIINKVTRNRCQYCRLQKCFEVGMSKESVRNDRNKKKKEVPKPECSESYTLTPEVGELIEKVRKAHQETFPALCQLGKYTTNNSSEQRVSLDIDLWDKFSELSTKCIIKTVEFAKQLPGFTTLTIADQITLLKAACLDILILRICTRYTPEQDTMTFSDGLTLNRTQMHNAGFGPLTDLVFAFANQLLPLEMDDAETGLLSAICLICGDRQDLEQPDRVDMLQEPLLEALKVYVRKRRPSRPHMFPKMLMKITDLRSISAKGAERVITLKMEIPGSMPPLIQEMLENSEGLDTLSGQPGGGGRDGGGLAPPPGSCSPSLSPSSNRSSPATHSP
T1 sequence (P19793 1-462): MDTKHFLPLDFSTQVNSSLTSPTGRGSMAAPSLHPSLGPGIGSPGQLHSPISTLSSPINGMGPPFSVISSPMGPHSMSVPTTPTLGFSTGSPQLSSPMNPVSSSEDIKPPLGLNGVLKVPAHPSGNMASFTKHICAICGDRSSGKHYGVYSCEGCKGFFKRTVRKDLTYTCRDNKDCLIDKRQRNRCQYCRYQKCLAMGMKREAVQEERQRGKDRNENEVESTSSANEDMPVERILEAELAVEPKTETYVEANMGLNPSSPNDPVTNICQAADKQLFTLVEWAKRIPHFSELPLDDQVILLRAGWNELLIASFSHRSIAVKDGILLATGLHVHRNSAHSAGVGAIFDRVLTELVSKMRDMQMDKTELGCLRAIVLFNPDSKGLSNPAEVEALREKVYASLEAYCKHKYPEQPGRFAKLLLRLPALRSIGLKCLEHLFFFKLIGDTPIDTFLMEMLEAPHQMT
The experiment in a line: cell-based. The method, then:
(§1) These assays were performed in CV-1 cells with the RAR or RXR gene and the chloramphenicol acetyltransferase (CAT) reporter gene containing TREpal with a thymidine kinase promoter [(TREpal)2 -tk-CAT]. Twenty-four hours after transfection, cells were treated with a single dose of retinoid and the cell extracts were assayed for b-galactosidase and CAT activity. The antagonistic effects of UAB30 retinoids on the transcription of RAR-α were also determined in CV-1 cells. The methods are nearly identical to those used to perform transcriptional assays. These studies utilized the CAT reporter gene [(TREpal)2 -tk-CAT]. […] After 24 hours, cells were harvested and the transcriptional effects were measured in relative CAT activity, after correction with β-galactosidase activity for transfection efficiency. […] Experiments were performed in triplicate and the data were averaged.

In data set [2] the test system is mouse skin papilloma. The following applies: ref (8); cited from earlier work.
For data set [3], the target named is T2, RARα (Homo sapiens, UniProt P10276).
T2 sequence (P10276 1-462): T1 sequence (P10276 1-462)
Kind of data set: cell-based. The protocol:
as §1
(§2) UAB30 isomers were evaluated in assays which measures their functional activity within cells to induce RARα-, RARβ-, and RARγ-mediated transcriptional activity. CV-1 cells were transiently transfected with DNA plasmid from the appropriate RAR subtype and (TREpal)2 -tk-CAT (9, 19).

Data set [4] addresses RXRα (Homo sapiens, UniProt P19793). The experiment in a line: nuclear receptor radiolabeled competition binding, RXRα. The protocol:
(§3) For active retinoids, IC50 values were determined by titration with varying concentrations of UAB retinoids.

For data set [5], the system named is HL-60 cells. The experiment in a line: retinoid induction of differentiation of HL-60 cells (NBT). The following applies: Homo sapiens, HL-60, 96 h; 4-day induction of differentiation; read-out: ED50 (nM) HL-60. It is filed as cell-based. The protocol: (§4) Human leukemia cell line HL-60 and NB4 were used for measuring the ability of retinoids to induce terminal differentiation. Both cell lines are predominantly promyelocytes and are induced by retinoic acid to mature to cells with many characteristics of mature granulocytes. The induction of this differentiation is the basis for assaying one of the biological activities of retinoic acid analogues. For the differentiation assay, HL-60 or NB4 cells were grown in nutrient medium with fetal bovine serum as detailed by Breitman (15).
(§5) The percentage of cells that gained this marker was measured microscopically. The percentage of positive cells was then plotted as a function of the retinoid concentration to determine ED50 and ED30 values used in the formation of isoboles.

For data set [6], the system named is NB4 cells. The experiment in a line: retinoid metabolism in NB4 cells. It is filed as in vitro ADME.
The target of data set [7] is T3, RARγ (Homo sapiens, UniProt P13631).
T3 sequence (P13631 1-454): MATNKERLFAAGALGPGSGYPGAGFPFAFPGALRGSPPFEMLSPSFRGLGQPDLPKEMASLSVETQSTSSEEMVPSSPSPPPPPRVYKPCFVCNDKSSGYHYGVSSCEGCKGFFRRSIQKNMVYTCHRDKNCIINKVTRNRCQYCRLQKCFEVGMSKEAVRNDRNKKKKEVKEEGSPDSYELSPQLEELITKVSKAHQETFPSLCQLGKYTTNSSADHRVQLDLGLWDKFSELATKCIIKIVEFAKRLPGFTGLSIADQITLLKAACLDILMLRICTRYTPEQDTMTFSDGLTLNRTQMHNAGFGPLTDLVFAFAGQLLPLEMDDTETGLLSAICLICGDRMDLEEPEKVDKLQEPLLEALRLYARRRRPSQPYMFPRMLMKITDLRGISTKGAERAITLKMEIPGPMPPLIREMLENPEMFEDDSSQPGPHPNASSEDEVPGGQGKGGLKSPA
Kind of data set: RARγ-mediated transcriptional activation in CV-1 cells. Format: cell-based. The method, then: as §1, §2

Data set [8] concerns the target T3, RARγ. The experiment in a line: nuclear receptor radiolabeled competition binding, RARγ. The method, then: as §3
In data set [9] the target is T2, RARα. Kind of data set: nuclear receptor radiolabeled competition binding, RARα. The protocol: as §3
The test system of data set [10] is NB4 cells. The experiment in a line: retinoid induction of differentiation of NB4 cells (NBT). Format: cell-based, Human. The following applies: read-out: ED30 NB4 cell differentiation. The protocol:
NB4 cells were obtained from Dr. Waxman after he received them from Dr. M. Lanotte. […] The cell were grown at 37° C. in a humidified atmosphere of 5% CO2 in air. Cell density was estimated on an electronic particle counter (Coulter electronic, Hialeah, Fla.) and cell viability with trypan bleu dye exclusion.
as §4, §5

Data set [11] has as its system mouse skin papilloma. Kind of data set: mouse skin antipapilloma assay. The following applies: 45.9 nmol dose.
Method: The mouse skin antipapilloma assay measured the ED50 values for retinoid tumor inhibition on the dorsal skin of mice. The inhibition of mouse skin papilloma by retinoids was performed according to a modification of the procedure developed by Verma and Boutwell (14) as reported previously by Muccio et al. (8).
The UAB30 retinoids were evaluated next for their activity in preventing the chemical induction of papillomas on mouse skin (14).
Data set [12] relates to JMML cells. The experiment in a line: inhibition of JMML spontaneous CFU-GM colony formation. The following applies: Homo sapiens.
Method: Mononuclear cells were separated by density gradient centrifugation, washed, and frozen in aliquots. […] No growth factors or other exogenous stimuli were added to the cultures. UAB retinoids and retinoic acid isomers were dissolved in either 100% ethanol or DMSO. Appropriate dilutions were made, and controls using the respective ethanol or DMSO concentration were set up in parallel. Varying doses of retinoids were added only once, 24 hours after initiation of the soft agar assays, by pipetting the retinoid solution on top of the soft agar and allowing the solution to enter the agar and interact with the cells by diffusion. The cultures were incubated for 14 days at 37° C. in a humidified atmosphere with 5% CO2.

Where two headings read alike, the source gives them in different places.

For the compound `CCC1=C(C(C)C)/C(=C/C(C)=C/C=C/C(C)=C/C(=O)O)CCC1` [(all-E)-UAB8], the EC50 is 68 nM in data set [1], 33 nM in data set [3], above 10000 nM in [5] and 2 nM in data set [7]. Besides, in data set [2], the “ED50 skin antipapilloma assay” value was 2.5 nmol. Also, the half-inhibitory concentration (IC50) in [4] was above 2000 nM; in [8] it was 10 nM; in [9], 14 nM. Besides, in [6], the “metabolism / metabolic stability” value is “metabolized at the same rate as ATRA”. Further, the EC30 in data set [10] (in combination with 9-cis-UAB8 (FIG. 8B)) came to 25 nM; in data set [10] (retinoid alone, 3 days) it was 110 nM. For the same compound, the “prevention of papilloma (tumor) formation” value in data set [11] is on record as 99%. The inhibition at 1 µM in [12] (read-out: normalized percent inhibition of CFU-GM colony growth, patient J43 (%)) was 98%; in data set [12] (read-out: normalized percent inhibition of CFU-GM colony growth, patient J84 (%)), 103%.

Source of the values: patent publication US6172112A, “Retinoids and use thereof” (priority 1999, dated 2001).
